Our source for the IC50 values is patent US20240336606A1 (Suzhou Zelgen Biopharmaceuticals Co., Ltd., priority 2020, published 2024).

The assay addresses T1, binding of KRAS^G12C to SOS1 (Homo sapiens, UniProt Q07889).
T1 construct: Tag1 (unspecified)
T1 sequence (Q07889 1-1333): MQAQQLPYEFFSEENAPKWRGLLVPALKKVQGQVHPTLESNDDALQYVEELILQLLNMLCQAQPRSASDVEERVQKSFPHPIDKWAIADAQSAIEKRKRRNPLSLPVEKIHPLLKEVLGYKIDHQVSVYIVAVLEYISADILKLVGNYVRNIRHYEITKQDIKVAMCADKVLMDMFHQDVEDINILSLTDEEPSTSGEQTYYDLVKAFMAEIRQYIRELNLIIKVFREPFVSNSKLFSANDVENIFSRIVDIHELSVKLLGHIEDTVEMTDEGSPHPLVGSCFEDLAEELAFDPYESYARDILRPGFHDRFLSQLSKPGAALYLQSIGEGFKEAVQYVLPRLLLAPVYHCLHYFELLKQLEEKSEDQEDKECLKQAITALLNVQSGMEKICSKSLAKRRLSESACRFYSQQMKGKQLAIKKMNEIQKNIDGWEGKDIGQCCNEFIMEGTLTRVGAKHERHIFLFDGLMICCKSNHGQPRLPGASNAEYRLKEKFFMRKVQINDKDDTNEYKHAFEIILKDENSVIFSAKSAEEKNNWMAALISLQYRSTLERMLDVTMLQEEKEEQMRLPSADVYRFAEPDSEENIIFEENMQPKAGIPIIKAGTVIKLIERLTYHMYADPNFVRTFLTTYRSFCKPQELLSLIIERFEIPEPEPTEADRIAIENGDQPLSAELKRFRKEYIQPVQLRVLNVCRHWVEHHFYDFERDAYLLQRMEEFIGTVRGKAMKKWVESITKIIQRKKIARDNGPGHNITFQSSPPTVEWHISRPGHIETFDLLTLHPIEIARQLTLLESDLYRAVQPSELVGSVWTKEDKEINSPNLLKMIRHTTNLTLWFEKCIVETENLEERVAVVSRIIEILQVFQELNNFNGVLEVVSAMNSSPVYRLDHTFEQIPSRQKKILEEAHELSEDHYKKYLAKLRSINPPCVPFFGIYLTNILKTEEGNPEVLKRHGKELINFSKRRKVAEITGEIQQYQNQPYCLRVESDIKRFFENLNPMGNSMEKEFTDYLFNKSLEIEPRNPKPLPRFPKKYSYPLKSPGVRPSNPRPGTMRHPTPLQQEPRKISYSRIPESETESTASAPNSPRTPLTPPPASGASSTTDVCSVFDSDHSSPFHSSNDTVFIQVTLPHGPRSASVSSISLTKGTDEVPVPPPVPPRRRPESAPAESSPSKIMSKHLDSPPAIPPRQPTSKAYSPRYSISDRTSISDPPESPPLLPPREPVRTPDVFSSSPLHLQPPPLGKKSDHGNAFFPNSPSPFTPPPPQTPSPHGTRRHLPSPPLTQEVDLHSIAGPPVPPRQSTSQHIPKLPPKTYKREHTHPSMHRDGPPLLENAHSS
The assay can be described thus: Inhibition of the binding of KRAS^G12C to SOS1. The conditions noted are these: Tag1-SOS1 / Tag2-KRAS^G12C, 2 h incubation at room temperature; read-out: IC50 (nM), inhibitory activity on the binding of KRAS^G12C to SOS1. The protocol: • (1) Gradient dilution of the test compounds: 10 mM mother solution (dissolved in 100% DMSO) was added to a 384-well test plate, the final content of DMSO being 0.25%.
(2) 5 μL of Tag1-SOS1 solution was added to the test plate, and 5 μL of dilution buffer was added to the control group.
(3) 5 μL of Tag2-KRAS^G12C solution was added to the test plate.
(4) 10 μL of Anti-Tag1-Tb3+ and Anti-Tag2-XL665 detection solution were added to the test plate. The plate was centrifuged at 1000 rpm for 1 min and incubated at room temperature for 2 h.
(6) The IC50 values for the compounds were finally calculated using GraphPad Prism software, and a curve was fit and plotted.
The inhibitory activity of the compounds of the examples of the present invention on the binding of KRAS^G12C enzyme to SOS1 is shown in Table 1.
Regarding `COc1cc2nc(C)nc(N[C@H](C)c3cc(N)cc(C(F)(F)F)c3)c2cc1OC[C@H](C)OC` [Example 47], the half-maximal inhibitory concentration (IC50) amounted to 7.4 nM.
On to `COc1cc2nc(C)nc(N[C@H](C)c3cc(N)cc(C(F)(F)F)c3)c2cc1OCCOC1CCC1` [Example 49, (R)—N-(1-(3-Amino-5-(trifluoromethyl)phenyl)ethyl)-6-(2-cyclobutoxyethoxy)-7-methoxy-2-methylquinazolin-4-amine], for which the IC50 turned out to be 4.6 nM.
As to `COCCOCCOc1cc2c(N[C@H](C)c3cc(N)cc(C(F)(F)F)c3)nc(C)nc2cc1OC` [Example 50, (R)—N-(1-(3-Amino-5-(trifluoromethyl)phenyl)ethyl)-7-methoxy-6-(2-(2-methoxyethoxy)ethoxy)-2-methylquinazolin-4-amine], the IC50 was 4.2 nM.
Next, `COCCOc1cc2c(N[C@H](C)c3cc(C(F)(F)F)cc(N)n3)nc(C)nc2cc1OC` [Example 51, (R)—N-(1-(6-Amino-4-(trifluoromethyl)pyridin-2-yl)ethyl)-7-methoxy-6-(2-methoxyethoxy)-2-methylquinazolin-4-amine]: 24 nM; `COCCOc1cc2c(N[C@H](C)c3cc(N)cc(C(F)(F)F)n3)nc(C)nc2cc1OC` [Example 52, (R)—N-(1-(4-Amino-6-(trifluoromethyl)pyridin-2-yl)ethyl)-7-methoxy-6-(2-methoxyethoxy)-2-methylquinazolin-4-amine]: 31 nM.
As for `COc1cc2nc(C)nc(N[C@H](C)c3cc(N)cc(C(F)(F)F)c3)c2cc1OCCCOC1CC1` [Example 53, (R)—N-(1-(3-Amino-5-(trifluoromethyl)phenyl)ethyl)-6-(3-cyclopropoxypropoxy)-7-methox y-2-methylquinazolin-4-amine], the half-inhibitory concentration (IC50) was 3.7 nM.
Next, `CNCC1(COc2cc3c(N[C@H](C)c4cccc(C(F)(F)F)c4F)nc(C)nc3cc2OC)CC1` [Example 54, (R)—N-(1-(2-Fluoro-3-(trifluoromethyl)phenyl)ethyl)-7-methoxy-2-methyl-6-((1-((methylamino)methyl)cyclopropyl)methoxy)quinazolin-4-amine]: 15 nM.
Take `COc1cc2nc(C)nc(N[C@H](C)c3cccc(C(F)(F)F)c3F)c2cc1OCC1(CO)CC1` [Example 55, (R)-(1-(((4-((1-(2-Fluoro-3-(trifluoromethyl)phenyl)ethyl)amino)-7-methoxy-2-methylquinazolin-6-yl)oxy)methyl)cyclopropyl)methanol]: the half-inhibitory concentration (IC50) amounted to 16 nM.
Next, `COCC1(COc2cc3c(N[C@H](C)c4cc(N)cc(C(F)(F)F)c4)nc(C)nc3cc2OC)CC1` [Example 56, (R)—N-(1-(3-Amino-5-(trifluoromethyl)phenyl)ethyl)-7-methoxy-6-((1-(methoxymethyl)cyclopropyl)methoxy)-2-methylquinazolin-4-amine]: 9.6 nM; `[2H]C([2H])([2H])OCCOc1cc2c(N[C@H](C)c3cc(N)cc(C(F)(F)F)c3)nc(C)nc2cc1OC` [Example 57, (R)—N-(1-(3-Amino-5-(trifluoromethyl)phenyl)ethyl)-7-methoxy-6-(2-(methoxy-d3)ethoxy)-2-methylquinazolin-4-amine]: 5.2 nM.
`COc1cc2nc(C)nc(N[C@H](C)c3cc(N)cc(C(F)(F)F)c3)c2cc1OCCOCC1CC1` [Example 58, (R)—N-(1-(3-Amino-5-(trifluoromethyl)phenyl)ethyl)-6-(2-(cyclopropylmethoxy)ethoxy)-7-methoxy-2-methylquinazolin-4-amine]: the IC50 came out at 5.1 nM.
For the compound `COCC(COC)Oc1cc2c(N[C@H](C)c3cc(N)cc(C(F)(F)F)c3)nc(C)nc2cc1OC` [Example 59, (R)—N-(1-(3-Amino-5-(trifluoromethyl)phenyl)ethyl)-6-((1,3-dimethoxypropan-2-yl)oxy)-7-methoxy-2-methylquinazolin-4-amine], the 50% inhibitory concentration (IC50) worked out at 4.7 nM.
Take `COc1cc2nc(C)nc(N[C@H](C)c3cc(C(F)(F)F)cc(N)n3)c2cc1OCCOC1COC1` [Example 60, (R)—N-(1-(6-Amino-4-(trifluoromethyl)pyridin-2-yl)ethyl)-7-methoxy-2-methyl-6-(2-(oxetan-3-yloxy)ethoxy)quinazolin-4-amine]: the IC50 amounted to 18 nM.
On to `COc1cc2nc(C)nc(N[C@H](C)c3cc(N)cc(C(F)(F)F)c3)c2cc1OCCOC1(C)COC1` [Example 61, (R)—N-(1-(3-Amino-5-(trifluoromethyl)phenyl)ethyl)-7-methoxy-2-methyl-6-(2-((3-methyloxetan-3-yl)oxy)ethoxy)quinazolin-4-amine], for which the IC50 turned out to be 3.7 nM.
With `COc1cc2nc(C)nc(N[C@H](C)c3cc(N)cc(C(F)(F)F)c3)c2cc1OCCOc1cccnc1` [Example 62, (R)—N-(1-(3-Amino-5-(trifluoromethyl)phenyl)ethyl)-7-methoxy-2-methyl-6-(2-(pyridin-3-yloxy)ethoxy)quinazolin-4-amine], the IC50 was 5.3 nM.
The same measure for `COCC1(C(C)Oc2cc3c(N[C@H](C)c4cc(N)cc(C(F)(F)F)c4)nc(C)nc3cc2OC)CC1` (stereo partly drawn) [Example 63, N—((R)-1-(3-Amino-5-(trifluoromethyl)phenyl)ethyl)-7-methoxy-6-(1-(1-(methoxymethyl)cyclopropyl)ethoxy)-2-methylquinazolin-4-amine]: 12 nM; for `COc1cc2nc(C)nc(N[C@H](C)c3cc(N)cc(C(F)(F)F)c3)c2cc1OCCOC1(C)CCC1` [Example 64, (R)—N-(1-(3-Amino-5-(trifluoromethyl)phenyl)ethyl)-7-methoxy-2-methyl-6-(2-(1-methylcyclobutoxy)ethoxy)quinazolin-4-amine]: 8.7 nM; for `COc1cc2nc(C)nc(N[C@H](C)c3cc(N)cc(C(F)(F)F)c3)c2cc1OCC1(C(C)OC)CC1` (stereo partly drawn) [Example 65, N—((R)-1-(3-Amino-5-(trifluoromethyl)phenyl)ethyl)-7-methoxy-6-((1-(1-methoxyethyl)cyclopropyl)methoxy)-2-methylquinazolin-4-amine]: 16 nM.
For `COc1cc2nc(C)nc(N[C@H](C)c3cc(N)cc(C(F)(F)F)c3)c2cc1OCCO[C@H]1CCOC1` [Example 66, N—((R)-1-(3-Amino-5-(trifluoromethyl)phenyl)ethyl)-7-methoxy-2-methyl-6-(2-(((S)-tetrahydrofuran-3-yl)oxy)ethoxy)quinazolin-4-amine], the IC50 turned out to be 7 nM.
Next, `COc1cc2nc(C)nc(N[C@H](C)c3cc(N)cc(C(F)(F)F)c3)c2cc1OCCO[C@@H]1CCOC1` [Example 67, N—((R)-1-(3-Amino-5-(trifluoromethyl)phenyl)ethyl)-7-methoxy-2-methyl-6-(2-(((R)-tetrahydrofuran-3-yl)oxy)ethoxy)quinazolin-4-amine]: 4.2 nM; `COc1cc2nc(C)nc(N[C@H](C)c3cc(N)cc(C(F)(F)F)c3)c2cc1OC[C@@H](C)OC1COC1` [Example 68, N—((R)-1-(3-Amino-5-(trifluoromethyl)phenyl)ethyl)-7-methoxy-2-methyl-6-((R)-2-(oxetan-3-yloxy)propoxy)quinazolin-4-amine]: 6.2 nM.
As for `COc1cc2nc(C)nc(N[C@H](C)c3cc(N)cc(C(F)(F)F)c3)c2cc1OC[C@H](C)OC1COC1` [Example 69, N—((R)-1-(3-Amino-5-(trifluoromethyl)phenyl)ethyl)-7-methoxy-2-methyl-6-((S)-2-(oxetan-3-yloxy)propoxy)quinazolin-4-amine], the half-maximal inhibitory concentration (IC50) amounted to 6.2 nM.
